Values quoted from earlier work in patent publication US6900176B2, “Pest control agents/depsipeptides” (priority 1999, dated 2005).

Tested on: silkworms
Conditions: known from the literature (Kanaoka et al. 1979; JP 05 271 013)

Compound | insecticidal activity against silkworms
CC(C)C[C@H]1C(=O)O[C@H](Cc2ccccc2)C(=O)N(C)[C@@H](CC(C)C)C(=O)O[C@H](C)C(=O)N(C)[C@@H](CC(C)C)C(=O)O[C@H](Cc2ccccc2)C(=O)N(C)[C@@H](CC(C)C)C(=O)O[C@H](C)C(=O)N1C [PF1022A] | insecticidal activity
CC(C)C[C@H]1C(=O)O[C@H](C(C)C)C(=O)N(C)[C@@H](CC(C)C)C(=O)O[C@H](C(C)C)C(=O)N(C)[C@@H](CC(C)C)C(=O)O[C@H](C(C)C)C(=O)N(C)[C@@H](CC(C)C)C(=O)O[C@H](C(C)C)C(=O)N1C [bassianolide] | insecticidal activity
